# According to US20070264194A1, “Peptides That Bind To Atherosclerotic Lesions” (The Scripps Research Institute, priority 2001, published 2007):
# Entries after “also recorded” stand apart in the source; their conditions may differ. No end group written: not given here.
# Tests used:
# [1] = system: human atherosclerotic lesions; test: Biotinylated peptide binding to human vessel specimens
# Description: The atherosclerotic regions of human vessels were similarly dissected and pinned on to the dissecting pan. These tissues were then incubated with refolded biotinylated peptides (10.0 μg/ml) overnight at 4° C. The samples were washed three times. An avidin-peroxidase conjugate was used as a second tier probe, and each specimen was visualized with DAB substrate.
# [2] = system: atherosclerotic lesions; test: Biotinylated peptide binding in vivo to atherosclerotic lesions (aorta and sections); parameters: species or system atherosclerotic ApoE knockout mice
# Description: (§1) Immunohistochemical analysis for binding was performed on frozen 5 micron sections of ApoE mouse atherosclerotic aortic valve and aorta on poly-L-lysine coated slides. Biotinylated peptide binding to aortic lesions was detected by strepavidin conjugated peroxidase and was developed with DAB substrate (Vector, Burlingame, Calif.). For endothelial identification, biotinylated […] was used and was detected with Texas red conjugated strepavidin. Phage staining was performed with rabbit anti-phage antibody followed by a fluorescein conjugated goat anti-rabbit antibody. The sections were analyzed by laser scanning confocal microscopy.
# (§2) To observe phage or peptide association with atherosclerotic lesions, either phage carrying a homing peptide sequence or a circular synthetic peptide were injected into the mice via the tail vein. […] Fixation was in situ by perfusion with 4% paraformaldehyde. The aortas were dissected under a microscope, and the associated fat tissue cleaned while attached. The aorta was then longitudinally opened from aortic valve to iliac bifurcation. The detached aorta was pinned flat.
# To verify that the peptidyl sequence CAPGPSKSC (SEQ ID NO:4) that is expressed on phage protein m was responsible for the selective localization to atherosclerotic lesions, a biotinylated peptide containing the core sequence CAPGPSKSC (SEQ ID NO:4) was synthesized, folded, disulfide bonds constituted by oxidization, and compositional validity established by mass spectrometry. The peptide was injected into atherosclerotic ApoE knockout mice via tail vein, and the tissues were fixed by in vivo perfusion, and aortas were freed by dissection. The binding of biotinylated peptide to the aorta was visualized with strepavidin conjugated peroxidase and DAB substrate.
# The association of this peptide to the atherosclerotic lesions was also analyzed on tissue sections. The experiment was replicated in atherosclerotic ApoE mice by infusing CAPGPSKSC (SEQ ID NO:4) peptide and sections of the aorta were prepared, detected with strepavidin-conjugated peroxidase and developed with DAB substrate. Peptide binding to the surface of atherosclerotic lesions (FIG. 2B) was quite evident. […] These areas are likely involved in lesion formation and differ to some degree in their phenotype compared to that of the overlying endothelium.
# [3] = system: ECV304; test: Peptide binding assay, ECV304; type: cell-based; details: not shown
# Description: (§3) Human umbilical cord venous endothelial cells (HUVEC) and EGM™ culture medium were from Clonetics, Walkersville, Md. Cells were cultivated in EGM with 5% fetal bovine serum (FBS) in flasks coated with 0.2% gelatin. The bEND.3 cells (ATCC) were cultured in Dulbecco's minimum essential medium (DMEM) (Invitrogen, Carlsbad, Calif.) supplemented with 10% FBS and 2 mM L-glutamine. The HT1080 cells were from ATCC and cultured in DMEM supplemented with 10% FBS, 2 mM L- glutamine, 1.5 g/L sodium bicarbonate, and 0.1 mM NEAA (Non-essential amino acids, Invitrogen, Carlsbad, Calif.). The ECV304 were from ATCC and cultured in DMEM, 10% FBS.
# (§4) Analysis of synthetic peptide binding to cells was performed in 96 well plates. Cells (10^5) were plated into each well, incubated overnight then briefly fixed with cold ethanol for 10 seconds. Serial concentrations of peptide in 100 μl PBS were added and incubated at room temperature with gentle shaking for four hours. The wells were washed three times with PBS and reaction developed using strepavidin-peroxidase substrate (Vector, Burlingame, Calif.). The reactions were quantified at 405 nm in a plate reader (Molecular Devices, Sunnyvale, Calif.). In the inhibition assay, TIMP-2 protein was included with the peptide in the initial incubation.
# [4] = system: fibroblast line HT1080; test: Peptide binding assay, HT1080; type: cell-based; details: not shown
# Description: as §3, §4
# [5] = system: aortic endothelium of ApoE knockout mice; test: Phage binding to aortic valves/endothelium (immunohistochemistry, confocal microscopy); type: in vivo
# Description: as §1, §2
# [6] = system: HUVEC endothelial cells; test: Peptide binding assay, HUVEC; type: cell-based, human; details: serial peptide concentrations, biotinylated synthetic peptides
# Description: as §3, §4
# [7] = system: TIMP-2 binding site on the surface of endothelial cells; test: Inhibition of peptide binding by TIMP-2 protein; type: cell-based; details: purified TIMP-2 protein 0.05 μM, peptide 0.5 μM
# Description: as §4
# [8] = non-diabetic insulin resistant monkeys; cited from earlier work
# [9] = sections of aorta, atherosclerotic ApoE mice
Compound,peptide binding to ECV304 [3],peptide binding to HT1080 cells [4],peptide binding to endothelial cells (absorbance at 405 nm) [6],effect of TIMP-2 protein on peptide binding to cells [7],further results
CAPGPSKSC (not fully specified (bridges); cysteine pairing not given here) [SEQ ID NO:4],,,,,"peptide binding to atherosclerotic lesion in human arterial specimen ([1]; biotinylated peptide 10.0 μg/ml on luminal surface, overnight 4° C., avidin-peroxidase/DAB): Bound peptide is apparent; also recorded: preferentially bound to the atherosclerotic plaque; peptide binding to non-atherosclerotic arterial samples or veins ([1]; human vascular samples, biotinylated peptide): no observable binding; peptide binding to lesions of the aorta ([2]; biotinylated synthetic peptide via tail vein, atherosclerotic ApoE knockout mice, streptavidin-peroxidase/DAB): like that of phage displaying the peptide; also recorded: replicated the CAPGPSKSC (SEQ ID NO:4) phage binding to the lesions; peptide binding to the surface of atherosclerotic lesions, tissue sections ([2]; sections of aorta after infusion of peptide, atherosclerotic ApoE mice): quite evident; pattern of peptide binding within the lesion, tissue sections [2, 9]: most intense in the endothelium overlying the atherosclerotic lesion; also recorded: bind more to the endothelium at the periphery of the lesions and less to the central aspect of the lesions; peptide signal outside the lesions, tissue sections [2, 9]: no substantial signal was evident elsewhere"
"CNQRHQMSC (A synthetic sequence from a combinatorial phage display library.) [SEQ ID NO:336, Eo3-112]",dose dependent binding,dose dependent binding,dose dependent binding,inhibits binding; also recorded: competitively inhibited,selectivity of localization for atherosclerotic lesion endothelium [5]: associates with a molecule present on both atherosclerotic and normal endothelial surfaces; also recorded: not entirely selective for atherosclerotic lesion endothelium
"CYNRSDGMC (A synthetic sequence from a combinatorial phage display library.) [SEQ ID NO:464, TIMP-2 homologous peptide]",dose dependent binding,dose dependent binding,dose dependent binding,inhibits binding; also recorded: competitively inhibited,
"CNHRYMQMC (A synthetic sequence from a combinatorial phage display library.) [SEQ ID NO:344, Eo3-114]",dose dependent binding,dose dependent binding,dose dependent binding,inhibits binding; also recorded: competitively inhibited,
Cc1cc(SCc2sc(-c3ccc(C(F)(F)F)cc3)nc2C)ccc1OCC(=O)O [GW501516],,,,,"increase of HDL-C [8]: 80%; increase of apoA-I [8]: 43%; triglyceride, LDL-C and insulin levels [8]: lowered"
